# Patent US20100280053A1, “CyclopropylmethYl-[7-(5,7-dimethyl-benzo[1,2,5]thiodiazol-4-yl)-2,5,6-trimethyl-7H-pyrrolo[2,3-d]pyrimidin-4-yl]-4-propyl-amine as a CRF Antagonist” (NOVARTIS AG, priority 2003, published 2010)
# Biological target: T1, human recombinant CRF1 (Homo sapiens, UniProt P34998)
# T1 construct: expressed in transfected cells
# T1 sequence (P34998 24-415): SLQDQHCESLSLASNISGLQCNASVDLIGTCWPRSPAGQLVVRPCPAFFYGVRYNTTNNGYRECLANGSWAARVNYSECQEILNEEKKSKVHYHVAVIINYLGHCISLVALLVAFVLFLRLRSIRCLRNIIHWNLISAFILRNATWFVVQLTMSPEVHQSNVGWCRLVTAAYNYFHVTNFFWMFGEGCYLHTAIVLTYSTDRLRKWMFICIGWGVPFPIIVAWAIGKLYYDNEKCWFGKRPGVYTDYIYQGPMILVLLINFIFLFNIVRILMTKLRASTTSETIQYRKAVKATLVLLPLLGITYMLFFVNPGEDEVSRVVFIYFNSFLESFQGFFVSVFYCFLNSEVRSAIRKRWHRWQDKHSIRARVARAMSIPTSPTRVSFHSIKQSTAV
# Experiment: Inhibition of CRF-stimulated cyclic AMP accumulation in CHO cells expressing human recombinant CRF1
# Assay type: cell-based
# Details: CRF concentration-response curves in presence of antagonist (1 nM-1 μM)
# Protocol: Chinese hamster ovary (CHO) cells expressing human recombinant CRF1 (Chen et al., Proc Natl Acad Sci USA 90, 8967-8971, 1993) are propagated in Dulbecco's modified Eagle medium supplemented with 10% foetal calf serum, non-essential aminoacids, 100 U/ml penicillin, 100 mg/l streptomycin and 1 g/l geneticin (G418). For cyblic AMP determinations, cells are grown to confluence in 24-multiwell plates. Stimulation of cyclic AMP accumulation by CRF (human/rat form) is measured in intact cells, using the [^3H]adenine labelling technique, as described previously (Schoeffter et al., Neuropharmacology 36, 429-437, 1997).
# Concentration-response curves for CRF are constructed in the presence of putative antagonists (1 nM-1 μM) or vehicle (dimethyl sulfoxide 1% vol). IC50 values of antagonists are calculated by fitting the percent inhibition of the effect of CRF (10 nM) by increasing concentrations of the antagonists. The fit is done using the nonlinear logistic function of the Origin software package (OriginLab Corporation, Northampton, Mass., USA).
smiles,measurement,value
"CCCN(CC1CC1)c1nc(C)nc2c1c(C)c(C)n2-c1c(C)cc(C)c2nsnc12 [compound of formula A, Cyclopropylmethyl-[7-(5,7-dimethyl-benzo[1,2,5]thiadiazol-4-yl)-2,5,6-trimethyl-7H-pyrrolo[2,3-d]pyrimidin-4-yl]-propyl-amine]",mode of CRF1 receptor antagonism,non-competitive CRF1 receptor antagonist
